Laboratory results as given in publication PMC9500805, “Cytotoxic Assessment of 3,3-Dichloro-β-Lactams Prepared through Microwave-Assisted Benzylic C-H Activation from Benzyl-Tethered Trichloroacetamides Catalyzed by RuCl2(PPh3)3” (Molecules, 2022).
In brackets after ≈: the same amount, converted by molar mass.

Tests used:
[1] = Hemolysis assay with human erythrocytes; format: cell-based; conditions: human erythrocyte suspension, PBS pH 7.4, mean ± SD; for hemolysis at 10 µg/mL: compound at 10 µg/mL; for hemolysis at 80 µg/mL: compound at 80 µg/mL
Method: Human blood samples were obtained from the Banc de Sang i Teixits de Barcelona (Spain) from the Catalan Department of Health. Blood was deposited in tubes with the anticoagulant EDTA-K3. Blood samples were centrifuged at 3000 rpm at 4 °C for 10 min (Megafuge 2.0 R. Heraeus Instruments, Hanau, Germany) to induce sedimentation. Plasma was extracted with a Pasteur pipette. Next, the residual pellet was washed with PBS at pH 7.4. This procedure was repeated three times to remove residual leukocytes and platelets and to concentrate the erythrocytes. Following the last wash, the erythrocyte suspension was diluted (1:1) in PBS at pH 7.4 to obtain a suitable erythrocyte suspension (cell density of 8 × 10^9 cell/mL).
The hemolysis assay determined the capability of the different compounds to induce hemolysis of the erythrocyte membrane. Stock solutions of each compound at 1 mg/mL in PBS at pH 7.4 were prepared. Different volumes (10–80 µL) were placed in polystyrene tubes, and an aliquot of 25 µL of the erythrocyte suspensions was added to each tube. The final volume was 1 mL. The tubes were incubated at room temperature under rotatory conditions. Next, the tubes were centrifuged at 10,000 rpm for 5 min. The supernatants’ absorbance at 540 nm (Shimadzu UV-160A, Shimadzu, Duisburg, Germany) was compared with that of the control samples hemolyzed with distilled water (positive control). The negative control was obtained by incubating an aliquot of 25 µL of the erythrocyte suspension with PBS at pH 7.4.
The degree of hemolysis was determined with the following equation:Hemolysis (%) = 100 × (Abs − Ab0)/(Abs100 − Abs0) where Abs, Abs0 and Abs100 are the absorbance of test samples, of the suspension treated with isotonic physiological buffer saline (PBS) and of the suspension of complete hemolysis treated with distilled water, respectively.

HaCaT cells [2] = assay: Cell viability, NRU assay, HaCaT; format: cell-based, human; conditions: 24 h, NRU endpoint, 10–250 µg/mL tested; for IC50: Homo sapiens
Method: (§1) The immortal human keratinocyte (HaCaT) and the squamous cell carcinoma (A431) cell lines were obtained from Celltec UB. Cells were grown in DMEM medium (4.5 g/L glucose) supplemented with 10% (v/v) FBS, 2 mM L-glutamine, 100 U/mL penicillin and 100 µg/mL streptomycin at 37 °C, 5% CO2. Cells were routinely cultured in 75 cm^2 culture flasks and were trypsinized using trypsin–EDTA when the cells reached approximately 80% confluence. The trypan blue assay, which allows a direct identification and enumeration of live (unstained) and dead (blue) cells in a given population, was used to evaluate the viability of the cells in the cell suspension obtained.
(§2) HaCaT cells (1 × 10^5 cells/mL) and A431 cells (5 × 10^4 cells/mL) were grown at the defined densities in the 60 central wells of a 96-well plate. Cells were incubated for 24 h in 5% CO2 at 37 °C. Then, the spent medium was removed, and cells were incubated for 24 h with the corresponding compound solutions (1 mg/mL) previously diluted in the minimum amount of DMF (dimethylformamide) and then in DMEM medium supplemented with 5% FBS (100 µL) at the required concentration range (10–250 µg/mL). The viability of the cells upon incubation with the β-lactam derivatives was assayed using 2 different endpoints: NRU and MTT.
(§3) The neutral red uptake (NRU) assay is based on the accumulation of the dye in the lysosomes of viable cells. After the cells were incubated for 24 h with the corresponding systems, the medium was removed, and the solutions were incubated with the NR dye (Sigma-Aldrich, St. Louis, MO, USA) solution (50 µg/mL) dissolved in the medium without FBS and without phenol red (Lonza, Verviers, Belgium) for 3 h. Cells were then washed with sterile PBS, followed by the addition of 100 µL of a solution containing 50% absolute ethanol and 1% acetic acid in distilled water to extract the dye. To promote total dissolution of the dye, plates were placed in a microtiter-plate shaker for 5 min at room temperature. The absorbance of the resulting solutions was measured at 550 nm (Bio-Rad 550 microplate reader, Bio-Rad California, Hercules, CA, USA). Finally, the effect of each treatment was calculated as the percentage of dye uptake by viable cells relative to the control cells (cells without any treatment).
(§4) The corresponding half-maximal inhibitory concentration (IC50) values for the different formulations as a function of cell line and endpoint were determined from the fitting of concentration-dependent viability curves.

HaCaT cells [3] = assay: Cell viability, HaCaT, MTT and NRU endpoints taken together; format: cell-based; conditions: Homo sapiens, 24 h, span over or independent of endpoint method
Method: as §1, §2
as §3, with “Cells were then washed with sterile PBS, followed by the addition of 100 µL of a solution containing 50% absolute ethanol and 1% acetic acid in distilled water to extract the dye. To promote total dissolution of the dye, plates were placed in a microtiter-plate shaker for 5 min at room temperature.” left out
Only living cells can reduce the yellow tetrazolium salt 3-(4,5-dimethyl-2-thiazolyl)-2,5-diphenyltetrazolium bromide (MTT) to insoluble purple formazan crystals. […] Agitation and determination of the absorbance of the extracted solution were performed under the same conditions, as described in Section 3.4.1. Finally, the effect of each treatment was calculated as the percentage of tetrazolium salt reduction by viable cells relative to the control cells (cells without any treatment).
as §4

[4] = Cell viability-screening assays (MTT and NRU), both cell lines; format: cell-based, human; conditions: human, HaCaT keratinocytes and A431 squamous cell carcinoma cells; HaCaT and A431, MTT and NRU, 24 h, 10–250 µg/mL; as a function of cell type and endpoint method; read-out: percentage viability compared to control cells
Method: as §1, §2, §3
(§5) Only living cells can reduce the yellow tetrazolium salt 3-(4,5-dimethyl-2-thiazolyl)-2,5-diphenyltetrazolium bromide (MTT) to insoluble purple formazan crystals. After 24 h of incubation of the cells with the corresponding NPs, the medium was removed, and 100 µL of MTT (Sigma-Aldrich, St. Louis, United States) in PBS (5 mg/mL) diluted 1:10 in culture medium without phenol red and without FBS (Lonza, Verviers, Belgium) was added to the cells. After 3 h of incubation, the medium was removed. Thereafter, 100 µL of DMSO (Sigma-Aldrich, St. Louis, MO, USA) was added to each well to dissolve the purple formazan crystals. Agitation and determination of the absorbance of the extracted solution were performed under the same conditions, as described in Section 3.4.1. Finally, the effect of each treatment was calculated as the percentage of tetrazolium salt reduction by viable cells relative to the control cells (cells without any treatment).

A431 cells [5] = assay: Cell viability, NRU assay, A431; format: cell-based, human; conditions: for IC50: Homo sapiens, A-431, 24 h, A431, 24 h, NRU endpoint, 10–250 µg/mL tested; for SI NRU: SI = IC50 HaCaT / IC50 A431, NRU endpoint
Method: as §1, §2, §3, §4
(§6) The corresponding selectivity indexes toward tumoral cells were calculated as the following ratio:SI = IC50 (non-tumoral cell line)/IC50 (tumoral cell line) where HaCaT keratinocytes were used as close representatives of a skin model cell line under non-tumoral conditions.

A431 cells [6] = assay: Cell viability, A431, MTT and NRU endpoints taken together; format: cell-based; conditions: Homo sapiens, A-431; A431, 24 h, span over or independent of endpoint method
Method: as §1, §2, §3, §5, §4

A431 cells [7] = assay: Cell viability, MTT assay, A431; format: cell-based, human; conditions: for IC50: Homo sapiens, A-431, 24 h, A431, 24 h, MTT endpoint, 10–250 µg/mL tested; for SI MTT: SI = IC50 HaCaT / IC50 A431, MTT endpoint
Method: as §1, §2, §5, §4, §6

HaCaT cells [8] = assay: Cell viability, MTT assay, HaCaT; format: cell-based; conditions: Homo sapiens, 24 h, MTT endpoint, 10–250 µg/mL tested
Method: as §1, §2, §5, §4

[9] = test system: human MCF-7 breast cancer cells; set-up: method as in PMID 21397510; conditions: cited from earlier work
HaCaT and A431 cells = assay: Cell viability-screening assays (MTT and NRU), both cell lines; format: cell-based, human; conditions: regardless of the concentration range
Method: as §1, §2, §3, §5

[10] = human, pH 7.4, human RBC suspension

## CC(C)(C)N1C(=O)C(Cl)(Cl)C1c1ccccc1 (centres unmarked) [2b]
[1]; human RBC suspension
  hemolysis at 10 µg/mL: 0.01 ± 0.01%
  hemolysis at 80 µg/mL: 2.5 ± 0.97%
HaCaT cells [2]
  IC50: 48.3 µg/mL (≈ 177 µM)
HaCaT cells [3]
  IC50: 20 to 49 µg/mL (≈ 73.5 to 180 µM)
[4]
  viability at 24 h: < 20%
A431 cells [5]
  IC50: 29.5 µg/mL (≈ 109 µM)
  SI NRU: 1.63
A431 cells [6]
  IC50: 30 to 47 µg/mL (≈ 110 to 173 µM)
A431 cells [7]
  IC50: 46.9 µg/mL (≈ 172 µM)
  SI MTT: 0.42
HaCaT cells [8]
  IC50: 19.8 µg/mL (≈ 72.8 µM)

## Cc1ccccc1C1N(C(C)(C)C)C(=O)C1(Cl)Cl (centres unmarked) [2c]
[1]; [10]
  hemolysis at 10 µg/mL: 0.01 ± 0.01%
  hemolysis at 80 µg/mL: 0.01 ± 0.01%
HaCaT cells [2]
  IC50: > 250 µg/mL
[4]
  viability at 24 h: ≤ 50%
A431 cells [5]
  IC50: > 250 µg/mL
  SI NRU: >1.0
A431 cells [7]
  IC50: ~250 µg/mL (≈ 874 µM)
  SI MTT: 1.0
HaCaT cells [8]
  IC50: ~250 µg/mL (≈ 874 µM)

## COc1ccc([C@@H]2[C@@H](c3cccs3)C(=O)N2c2cc(OC)c(OC)c(OC)c2)cc1O [I]
[9]
  IC50: 7 nM

## O=C1N(C2CCCCC2)C(c2ccccc2)C1(Cl)Cl (centres unmarked) [2k]
[1]; [10]
  hemolysis at 10 µg/mL: ~0.25%
  hemolysis at 80 µg/mL: 0.3 ± 0.21%
HaCaT cells [2]
  IC50 HaCaT NRU: >250 µg/mL
  IC50: ~220 µg/mL (≈ 738 µM)
[4]
  viability at 24 h: < 20%
A431 cells [5]
  IC50: 220 µg/mL (≈ 738 µM)
  SI NRU: >1.13
A431 cells [6]
  IC50: > 250 µg/mL
A431 cells [7]
  IC50: 250 µg/mL (≈ 838 µM)
  SI MTT: >1.0
HaCaT cells [8]
  IC50: > 250 µg/mL

## COc1ccc([C@@H]2[C@@H](c3ccsc3)C(=O)N2c2cc(OC)c(OC)c(OC)c2)cc1O [II]
[9]
  IC50: 10 nM

## CC(C)(C)N1C(=O)C(Cl)(Cl)C1c1cc(F)cc(F)c1 (centres unmarked) [2h]
[1]; [10]
  hemolysis at 10 µg/mL: 0.05 ± 0.05%
  hemolysis at 80 µg/mL: 0.12 ± 0.09%
HaCaT cells [2]
  IC50: > 250 µg/mL
HaCaT cells [3]
  IC50: > 250 µg/mL
HaCaT and A431 cells
  selectivity against the cell type (HaCaT vs A431 cytotoxicity): the opposite results
[4]
  viability at 24 h: ≤ 50%
A431 cells [5]
  IC50: 250 µg/mL (≈ 811 µM)
  SI NRU: >1.0
A431 cells [6]
  IC50: ~250 µg/mL (≈ 811 µM)
A431 cells [7]
  IC50: 250 µg/mL (≈ 811 µM)
  SI MTT: >1.0
HaCaT cells [8]
  IC50: > 250 µg/mL

## Cc1ccc(C2N(C(C)(C)C)C(=O)C2(Cl)Cl)cc1 (centres unmarked) [2e]
[1]; [10]
  hemolysis at 10 µg/mL: 0.01 ± 0.01%
  hemolysis at 80 µg/mL: 0.2 ± 0.23%
HaCaT cells [2]
  IC50: 78.8 µg/mL (≈ 275 µM)
HaCaT cells [3]
  IC50: 78 to 93 µg/mL (≈ 273 to 325 µM)
HaCaT and A431 cells
  selectivity against the cell type (HaCaT vs A431 cytotoxicity): higher cytotoxicity in HaCaT cells than in A431 cells
[4]
  viability at 24 h: < 20%
A431 cells [5]
  IC50: 121 µg/mL (≈ 422 µM)
  SI NRU: 0.65
A431 cells [6]
  IC50: 120 to 180 µg/mL (≈ 419 to 629 µM)
A431 cells [7]
  IC50: 180 µg/mL (≈ 629 µM)
  SI MTT: 0.51
HaCaT cells [8]
  IC50: 92.6 µg/mL (≈ 324 µM)

## CC(C)N1C(=O)C(Cl)(Cl)C1c1ccccc1 (centres unmarked) [2j]
[1]; [10]
  hemolysis at 10 µg/mL: 0.01 ± 0.01%
  hemolysis at 80 µg/mL: 0.02 ± 0.02%
HaCaT cells [2]
  IC50: 40.1 µg/mL (≈ 155 µM)
HaCaT cells [3]
  IC50: 40 to 42 µg/mL (≈ 155 to 163 µM)
[4]
  viability at 24 h: < 20%
A431 cells [5]
  IC50: 37.9 µg/mL (≈ 147 µM)
  SI NRU: 1.06
A431 cells [6]
  IC50: 38 to 76 µg/mL (≈ 147 to 294 µM)
A431 cells [7]
  IC50: 76.2 µg/mL (≈ 295 µM)
  SI MTT: 0.55
HaCaT cells [8]
  IC50: 42.1 µg/mL (≈ 163 µM)
